The data set concerns African-American individuals with SCN5A variant S1103Y. The following applies: carriers of SCN5A S1103Y variant; three individuals after amiodarone treatment, one after infusion of brevital; QT prolongation exacerbated in these cases.

The structures appear in SMILES notation.

From the text: To determine the genetic basis for these arrhythmias, individuals with drug-induced torsade de pointes and ventricular fibrillation were screened for mutations in known arrhythmia genes.

As for `C=CCC1(C(C)C#CCC)C(=O)N=C([O-])N(C)C1=O.[Na+]` (stereo not shown) [brevital], the “arrhythmia after drug treatment” value is reported as “experienced arrhythmia”.

These data come from US7208273B2, “Common polymorphism in scn5a implicated in drug-induced cardiac arrhythmia” (University of Utah Research Foundation, priority 2000, dated 2007).
